The text below walks through data of PubChem BioAssay AID463224 (The Scripps Research Institute Molecular Screening Center, 2010).

The experiment deals with Serine/threonine-protein phosphatase 5 (Homo sapiens) (UniProt P53041). Kind of experiment: PP5 inhibitor potency, dose response, orthogonal assay for PP5 inhibitor project, biochemical, radiolabel, powder samples (AID 463224). As to conditions: purified PP5c, 33P-phosphohistone dephosphorylation, scintillation.
Chain of Serine/threonine-protein phosphatase 5 (Homo sapiens) (P53041 whole entry, looked up): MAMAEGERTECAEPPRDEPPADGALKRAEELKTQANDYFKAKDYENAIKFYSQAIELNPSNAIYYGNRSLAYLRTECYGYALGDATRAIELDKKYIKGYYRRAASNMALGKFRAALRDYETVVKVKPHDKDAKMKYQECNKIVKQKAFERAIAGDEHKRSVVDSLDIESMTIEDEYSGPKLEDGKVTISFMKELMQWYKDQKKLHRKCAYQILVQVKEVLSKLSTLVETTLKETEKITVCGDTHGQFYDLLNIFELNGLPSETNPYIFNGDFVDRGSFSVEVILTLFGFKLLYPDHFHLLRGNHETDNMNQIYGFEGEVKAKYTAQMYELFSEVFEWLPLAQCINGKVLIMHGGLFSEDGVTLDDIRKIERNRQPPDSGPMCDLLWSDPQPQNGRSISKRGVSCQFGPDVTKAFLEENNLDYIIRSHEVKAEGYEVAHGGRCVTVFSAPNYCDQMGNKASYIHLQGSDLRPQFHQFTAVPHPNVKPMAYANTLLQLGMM

The term IC50 denotes the concentration that inhibits the measured activity by half. Consider `O=C(O)c1n[nH]nc1-c1ccccc1`, for which the IC50 is 40.6 µM.
For `O=C(O)C1C2CCC(O2)C1C(=O)NC1CCCCC1` (configuration not stated), the IC50 was 13.5 µM.
